The values that follow are results of earlier work, collected in patent US20160114057A1, “MODULAR PROTEIN DRUG CONJUGATE THERAPEUTIC” (ZYMEWORKS INC., priority 2013, published 2016).

Several values for one entry are separate records, joined by “and”; a condition that tells them apart may be missing. Identical values can stand only once. Like-named read-outs stand apart in the source and are kept apart here. *1 amine or outer side, *2 acyl side, *3 side chain or, on linkers, in order; H or OH if unused. Where a SMILES comes first, the peptide text is derived from it. Bridges are numbered along the chain shown (N, C = ends). [ ]: non-standard residue; d: D form. The star is where a group is joined. X2 = CC[C@@H](C)C[C@H](N[*:1])C(=O)[*:2]; X1 = CC[C@H](C)CC(N[*:1])C(=O)[*:2]; d(aThr) = C[C@@H](O)[C@@H](N)C(=O)O; NMe2Val = CC(C)[C@@H](C(=O)*)N(C)C; NMeT = CN[C@H](C(=O)O)[C@@H](C)O; Suc = O=C(CCC(=O)[*:2])[*:1]; NMeV = CN[C@H](C(=O)O)C(C)C; NHBn = c1ccc(CN*)cc1; Dha = C=C(N)C(=O)O

The conditions of data set [1]: human, in vivo.
For data set [2] the following is noted: in vivo.
The subject of data set [3] is NCI tumor panel (60 cell line). The note with it: for IC50: range over cell lines.
For data set [4] the following is noted: KB-31 (melanoma).
Test in data set [5]: not given
The source holds these as a separate data set.

Turning to `CC/C=C\C=C/C(=O)N/C=C/CC1CC2CC(O)CC(Cc3cccc(O)c3C(=O)O1)O2` (stereo not drawn) [Apicularen A], the IC50 result with various tumor cell lines was “IC50's of 0.1 to 3 ng/mL”.

In the case of `COc1ccc(C[C@H]2NC(=O)/C=C/C[C@@H]([C@H](C)[C@H]3O[C@@H]3c3ccccc3)OC(=O)[C@H](CC(C)C)OC(=O)CCNC2=O)cc1` [Arenastatin A analogs], the “Activity (IC50)” value in the data set with KB (KB (nasopharyngeal)) was 0.005 ng/mL. For the same compound, the IC50 in the data set with KB (KB, read-out: Activity (IC50)) is 8.7 nM.

Consider `C/C(=C\c1csc(C)n1)[C@@H]1C[C@@H]2O[C@]2(C)CCC[C@H](C)[C@H](O)[C@@H](C)C(=O)C(C)(C)[C@@H](O)CC(=O)N1` [BMS-247550], for which the “Toxicity (in words)” value is reported as “sever toxicity”. Moreover, the “clinical responses (in words)” value in data set [1] is reported as “tumor (objective”.

For `C/C(=C\c1csc(CN)n1)[C@@H]1C[C@@H]2O[C@]2(C)CCC[C@H](C)[C@H](O)[C@@H](C)C(=O)C(C)(C)[C@@H](O)CC(=O)O1` [BMS-310705], the “Toxicity (in words)” value (in vivo) is “adverse events”. In the data set on various tumor cell lines (broad activity, read-out: IC50), the IC50 was 0.7 to 10 nM. Also, the t1/2 in [2] is 3.5 hrs; improved.

For `CC(C)[C@H](NC(=O)[C@H](C(C)C)N(C)C)C(=O)N(C)[C@H](C(=O)N1CCC[C@H]1C(=O)N1CCC[C@H]1C(=O)NCc1ccccc1)C(C)C` [Cemadotin] (NMe2Val-V[NMeV]PP-NHBn), the “Toxicity (in words)” value is on record as “hypertension,”. Besides, the “activity in NCI tumor panel (in words)” value in data set [3] was “active in breast,”.

On to `COc1ccc(C[C@H]2NC(=O)/C=C/C[C@@H]([C@H](C)[C@@H](O)[C@@H](Cl)c3ccccc3)OC(=O)[C@H](CC(C)C)OC(=O)[C@H](C)CNC2=O)cc1Cl` [Cryptophycin 8], for which the “activity in cell culture (in words)” value in the data set on various tumor cell lines was “broad spectrum”.

Regarding `COc1ccc(C[C@H]2NC(=O)/C=C/C[C@@H]([C@H](C)[C@H]3O[C@@H]3c3ccccc3)OC(=O)[C@H](CC(C)C)OC(=O)C(C)(C)CNC2=O)cc1Cl` [Cryptophycin analogs (including 52, 55 and others)], the “activity against multi-drug/drug resistant cell lines (in words)” value with MDR cell lines was “pM; active against”. For the same compound, the IC50 in the data set on various tumor cell lines (broad activity (lung, breast, colon, leukemia), read-out: IC50) is 0.002 to 0.04 nM.

Consider `C=CC[C@@H](CC/C(C)=C/C=C/CC/C=C\[C@@H]1CSC([C@@H]2C[C@@H]2C)=N1)OC` [Curacin A and analogs], for which the IC50 in the data set with various tumor cell lines (broad activity (cancer cell lines), read-out: Activity (IC50)) was 1 to 29 nM.

On to `CC[C@H](C)[C@@H]([C@@H](CC(=O)N1CCC[C@H]1[C@H](OC)[C@@H](C)C(=O)N[C@@H](Cc1ccccc1)c1nccs1)OC)N(C)C(=O)[C@@H](NC(=O)[C@H](C(C)C)N(C)C)C(C)C` [Dolastatin-10], for which the concentration with myelotoxicity result (in vivo) is listed as “greater than 0.3 pM)”.

Take `CO[C@]12C=C[C@](C)(O1)[C@@H](OC(=O)/C=C/c1cn(C)cn1)C[C@H]1C(C)=CC[C@H](C(C)C)[C@H]1/C=C\2CO[C@@H]1OC[C@@H](O)[C@@H](O)[C@@H]1OC(C)=O` [Eleutherobins]: in the data set on MDR cell lines, the “activity against multi-drug/drug resistant cell lines (in words)” value was “taxol; not effective”.

`C/C(=C\c1csc(C)n1)[C@@H]1C[C@@H]2O[C@@H]2CCC[C@H](C)[C@H](O)[C@@H](C)C(=O)C(C)(C)[C@@H](O)CC(=O)O1` [Epothilone A]: the IC50 in the data set on HCT-116 was 3.2 nM; in data set [4], 2.1 nM; in the data set with MCF-7/ADR it was 27.1 nM; in the data set with MCF-7 (breast), 1.5 nM.

Regarding `CN[C@H](C(=O)N[C@H](C(=O)N(C)[C@H](/C=C(\C)C(=O)O)C(C)C)C(C)(C)C)C(C)(C)c1c[nH]c2ccccc12` [Hemiasterlins A & B and analogs], the IC50 was 0.4 ng/mL P388 with P388 and 0.3 to 3 nM in the data set with MCF-7 (breast).

As for `CCCC1(O)C(O)C(C)C/C=C/C=C/C(CC(C)O)CCC2OC3(CCC(C)C(C(C)C(O)CC)O3)C(C)C(OC(=O)/C=C/C(C)C(O)C(C)C(O)C(OC3CCC(O)C(C)O3)C(O)C(O)C1O)C2C` (stereo not drawn) [IB-96212], in the data set on P388, the IC50 is on record as 0.1 P388 ng/mL.

On to `C=C1C[C@@H]2CCO[C@H]3[C@@H]4O[C@H]5CC[C@H](CC(=O)O[C@@H]6[C@@H](C)[C@@H]7O[C@@H]8C[C@]9(C[C@@H]%10O[C@]%11(C[C@H](C)[C@@H]%12O[C@H](CC(=O)CCO)[C@H](O)C[C@@H]%12O%11)C[C@H](C)[C@@H]%10O9)O[C@@H]8C[C@@H]7O[C@H]6C[C@H]6O[C@@H](CC[C@@H]1O2)C[C@@H](C)C6=C)O[C@@H]5[C@@H]1OCC[C@H]3O[C@@H]14` [Isohomo-halichondrin B], for which the IC50 in data set [3] (NCI tumor panel) was about 0.1 nM.

For `COc1cc2cc(c1Cl)N(C)C(=O)C[C@H](OC(=O)[C@H](C)N(C)C(C)=O)[C@]1(C)O[C@H]1[C@H](C)[C@@H]1C[C@@](O)(NC(=O)O1)[C@H](OC)/C=C/C=C(\C)C2` [Maytansine], the “Toxicity (in words)” value is given as “severe toxicity”.

In the case of `CCCCCCCCCCCCCCCC(=O)OC1CC(C(C)C(OC)/C(C)=C/C=C/C(C)=C/c2coc(C)n2)OC(=O)C2OC2CC2CC(=O)OC(C2)C(C)/C=C/C2OC21C` (stereo not drawn) [Palmitoylrhizoxin], the “Toxicity (in words)” value is “binds LDL; less”.

Turning to `C=C(C)[C@@H]1NC(=O)[C@@H](NC)[C@@H](O)c2cc(Cl)c(O)c(c2)O[C@](C)(CC)[C@@H](C(=O)N2CC=C[C@H]2C(=O)N/C(C(=O)N/C(=C/C(=O)O)C(=O)O)=C(\C)CC)NC1=O` [Phomopsin A], the “activity in cell culture (in words)” value with various tumor cell lines is given as “potent anticancer”.

In the case of `C=C1C[C@@H]2C[C@@H]3C[C@@H](O)C[C@@H](O3)c3coc(n3)/C=C/C[C@H]3O[C@@H](/C(C)=C/c4coc(C[C@]5(O)CC(OC)C[C@H]([C@H](O)/C=C(C)/C=C/C(C/C=C/Br)OC)O5)n4)[C@H](C)[C@@H](OC(=O)/C=C\C[C@@H](C1)O2)[C@H]3C` (stereo partly drawn) [Phorboxazole A], the IC50 in data set [3] (NCI tumor panel) is 1 to 10 nM.

`COc1cc([C@@H]2c3cc4c(cc3[C@H](O)[C@H]3COC(=O)[C@H]23)OCO4)cc(OC)c1OC` [Podophyllotoxin]: the “activity in cell culture (in words)” value with various tumor cell lines is reported as “in μM range”.

As to `CO[C@@H](/C(C)=C/C=C/C(C)=C/c1coc(C)n1)[C@@H](C)[C@@H]1C[C@H](O)[C@@]2(C)O[C@@H]2/C=C/[C@@H](C)[C@H]2C[C@H](CC(=O)O2)C[C@H]2O[C@H]2C(=O)O1` [Rhizoxin], the “Toxicity (in words)” value is recorded as “Rapid Drug”.

For `C=C(Cl)/C=C/[C@@H](O)CC(=C)C[C@H]1O[C@@H]2[C@H](C)[C@@H](OC(=O)C[C@@H]3C[C@H](OC(C)=O)C[C@@]4(C[C@@](C)(O)C[C@H](CC(=C)[C@@H](C)C(OC(C)=O)[C@H](C)C(=O)C[C@@H]5C[C@H](OC)C[C@@]6(C[C@@H](O)C[C@H](/C=C\CCC[C@H]7O[C@](O)(C[C@H](O)[C@H]7C)[C@H]2O)O6)O5)O4)O3)[C@@H]1O` (stereo partly drawn) [Spongistatin-1], in data set [3] (NCI tumor panel, values or ends of the range over cell lines, read-out: GI50), the concentration for 50% growth inhibition (GI50) is ≥ 0.025 nM and ≤ 0.035 nM.

With `C=C(Cl)/C=C/[C@@H](O)CC(=C)C[C@H]1O[C@@H]2[C@H](C)[C@@H](OC(=O)C[C@@H]3C[C@H](OC(C)=O)C[C@@]4(C[C@@](C)(O)C[C@H](CC(=C)[C@@H](C)C(OC(C)=O)[C@H](C)C(=O)C[C@@H]5C[C@H](OC)C[C@@]6(C[C@@H](O)C[C@H](/C=C\CCC[C@H]7O[C@](O)(C[C@H](O)[C@H]7C)[C@H]2O)O6)O5)O4)O3)[C@@H]1O` (stereo partly drawn) [Spongistatins (1-9)], the “activity in NCI tumor panel (in words)” value in [3] was “Most potent”. Also, in data set [3] (NCI panel cell line, read-out: mean GI50), the GI50 was 0.1 nM.

For `CC(=O)O[C@H]1C(=O)[C@@]2(C)[C@H]([C@H](OC(=O)c3ccccc3)[C@]3(O)C[C@H](OC(=O)[C@H](O)[C@@H](NC(=O)c4ccccc4)c4ccccc4)C(C)=C1C3(C)C)[C@]1(OC(C)=O)CO[C@@H]1C[C@@H]2O` [Taxol], the “Toxicity (in words)” value (in vivo) was “severe toxicity”.

In the case of `C=C1NC(=O)[C@H]([C@@H](C)CC)NC(=O)[C@@H]2CSSC[C@H](NC(=O)CCC(=O)O)C(=O)N[C@H](Cc3ccccc3)C(=O)N[C@H](C)C(=O)NC(C[C@@H](C)CC)C(=O)N[C@@H](C(=O)N[C@H](Cc3ccccc3)C(=O)N3CCC[C@H]3C(=O)N2)[C@@H](C)OC(=O)[C@H](CO)NC(=O)[C@H]([C@@H](C)OC)N(C)C(=O)[C@@H](C(C)C)NC(=O)[C@H](C[C@H](C)CC)NC1=O` (stereo partly drawn) [Vitilevuamide] (Suc-C[dF][dA][X1][d(aThr)][dF]PCI[Dha][X2][dV][NMeT](Me)S; disulfide 1-8; ester 5-C), in the data set on various tumor cell lines (panel of tumor cell lines HCT116, A549, SK-MEL-5, A498 cells, read-out: IC50), the IC50 is 6 to 311 nM.

As for `CCCC1C(=O)O[C@H](/C(C)=C/c2csc(C)n2)C[C@@H]2O[C@]2(C)CCC[C@H](C)[C@H](O)[C@@H](C)C(=O)C(C)(C)[C@H]1O` (stereo partly drawn) [ZK-EPO], in the data set with MDR cell lines, the “activity against multi-drug/drug resistant cell lines (in words)” value was “active in drug”.

On to `CC[C@H](C)[C@@H]([C@@H](CC(=O)N1CCC[C@H]1[C@H](OC)[C@@H](C)C(=O)NCCc1ccccc1)OC)N(C)C(=O)[C@@H](NC(=O)[C@H](C(C)C)N(C)C)C(C)C` [soblidotin], for which the MTD result in data set [5] (IV) is on record as “MTD was 1.8 mg/Kg”. Moreover, the inhibition in the data set with various tumor cell lines (cell culture: colon, melanoma, M5076 tumors, P388, dose not reported) was 75-85% inhibition.

For Didemnin B, the “Toxicity (in words)” value is listed as “cardiotoxicity;”. In addition, the “activity against multi-drug/drug resistant cell lines (in words)” value in the data set on MDR cell lines was “Not potent against”. Also, in data set [5] (in vivo), the MTD was 6.3 mg/Kg; toxicity. Besides, the t1/2 entry in data set [2] is “cleared (t1/2 4.8 hrs”.

Consider Epothilone D, for which the “Toxicity (in words)” value is “emesis and anemia;”. Further, the IC50 with HCT-116 was 0.42 nM. In addition, the “activity in cell culture (in words)” value with various tumor cell lines is “broad activity”. Further, the IC50 in [4] was 0.19 nM. Also, the t1/2 result in [2] was “t1/2 of 5-10 hrs”.

Take Halichondrin B: the “Toxicity (in words)” value (in vivo) is “myelotoxicity dose”.

By GI50 is commonly meant the concentration that inhibits growth by half.
